Molecules are shown by their SMILES.

The source of these data is ChEMBL document CHEMBL3045419, “Synthesis and Acaricidal Activity of N-(3-Pyridylmethyl)pyrazolecarboxamide Derivatives” (1997).

What all share (assay type): functional
The test system of assay [1] is Tetranychus urticae. The experiment in a line: Acaricidal against Tetranychus urticae (two-spotted spider mite) assessed as mortality at 3.1 ppm.
Assay [2] deals with Tetranychus urticae. In words: Acaricidal against Tetranychus urticae (two-spotted spider mite) assessed as mortality at 12.5 ppm.
Assay [3] relates to Tetranychus urticae. The experiment in a line: Acaricidal against Tetranychus urticae (two-spotted spider mite) assessed as mortality at 50 ppm.
Assay [4] has as its system Tetranychus urticae. In words: Acaricidal against Tetranychus urticae (two-spotted spider mite) assessed as mortality at 200 ppm.
Assay [5] has as its system Tetranychus urticae. In words: Acaricidal against Tetranychus urticae (two-spotted spider mite) assessed as mortality at 500 ppm.

With `CCCOc1ccc(CNC(=O)c2c(Cl)c(CC)nn2C)cn1`, the Activity with Tetranychus urticae [1] is given as 0%; in the assay with Tetranychus urticae [2], 0%; in the assay on Tetranychus urticae [3] it was 30%; in the assay on Tetranychus urticae [4], 30%; in the assay on Tetranychus urticae [5], 80%.

`CCCCCc1ccc(CNC(=O)c2c(Cl)c(CC)nn2C)cn1`: the Activity with Tetranychus urticae [1] came out at 0%; with Tetranychus urticae [2], 100%; with Tetranychus urticae [3], 100%; in the assay with Tetranychus urticae [4] it was 100%; with Tetranychus urticae [5], 100%.

For `CCc1nn(C)c(C(=O)NCc2ccc(C(C)C)nc2)c1Cl`, the Activity came out at 0% with Tetranychus urticae [1]; 30% in the assay on Tetranychus urticae [2]; 100% in the assay on Tetranychus urticae [3]; 100% with Tetranychus urticae [4]; 100% in the assay on Tetranychus urticae [5].

As to `CCc1nn(C)c(C(=O)NCc2ccc(OC(C)C)nc2)c1Cl`, the Activity is 0% with Tetranychus urticae [1]; 30% in the assay with Tetranychus urticae [2]; 80% with Tetranychus urticae [3]; 100% in the assay with Tetranychus urticae [4]; 100% in the assay with Tetranychus urticae [5].

On to `CCc1nn(C)c(C(=O)NCc2ccc(C(C)(C)C)nc2)c1Cl`, for which the Activity came to 80% with Tetranychus urticae [1]; 100% in the assay with Tetranychus urticae [2]; 100% in the assay with Tetranychus urticae [3]; 100% in the assay on Tetranychus urticae [4]; 100% with Tetranychus urticae [5].

On to `CCCCc1ccc(CNC(=O)c2c(Cl)c(CC)nn2C)cn1`, for which the Activity worked out at 0% in the assay with Tetranychus urticae [1]; 30% with Tetranychus urticae [2]; 100% in the assay on Tetranychus urticae [3]; 100% with Tetranychus urticae [4]; 100% in the assay on Tetranychus urticae [5].

`CCCc1ccc(CNC(=O)c2c(Cl)c(CC)nn2C)cn1`: the Activity with Tetranychus urticae [1] came to 0%; with Tetranychus urticae [2], 0%; in the assay on Tetranychus urticae [3], 30%; in the assay on Tetranychus urticae [4], 80%; in the assay on Tetranychus urticae [5], 100%.

For the molecule `CCc1nn(C)c(C(=O)NCc2cnccc2C(C)(C)C)c1Cl`, the Activity in the assay on Tetranychus urticae [1], in the assay on Tetranychus urticae [2], in the assay with Tetranychus urticae [3], in the assay on Tetranychus urticae [4] and in the assay with Tetranychus urticae [5] was 100% throughout.

For the molecule `CCCCOc1ccc(CNC(=O)c2c(Cl)c(CC)nn2C)cn1`, the Activity stood at 30% in the assay on Tetranychus urticae [1]; 30% in the assay with Tetranychus urticae [2]; 80% in the assay with Tetranychus urticae [3]; 100% with Tetranychus urticae [4]; 100% in the assay with Tetranychus urticae [5].

For `CCc1nn(C)c(C(=O)NCc2ccc(CC(C)C)nc2)c1Cl`, the Activity with Tetranychus urticae [1] amounted to 0%; with Tetranychus urticae [2], 30%; with Tetranychus urticae [3], 100%; in the assay with Tetranychus urticae [4], 100%; with Tetranychus urticae [5], 100%.

Take `CCc1nn(C)c(C(=O)NCc2cccnc2)c1Cl`: the Activity in the assay with Tetranychus urticae [1] stood at 0%; in the assay on Tetranychus urticae [2] it was 0%; in the assay on Tetranychus urticae [3] it was 0%; with Tetranychus urticae [4], 0%; in the assay on Tetranychus urticae [5] it was 30%.

Take `CCc1nn(C)c(C(=O)NCc2ccc(OCC(F)(F)C(F)(F)F)nc2)c1Cl`: the Activity in the assay on Tetranychus urticae [1] was found to be 30%; in the assay with Tetranychus urticae [2], 80%; in the assay with Tetranychus urticae [3] it was 100%; with Tetranychus urticae [4], 100%; in the assay on Tetranychus urticae [5], 100%.

Take `CCc1nn(C)c(C(=O)NCc2ccc(OCCCC(F)(F)F)nc2)c1Cl`: the Activity with Tetranychus urticae [1] came to 30%; in the assay with Tetranychus urticae [2] it was 80%; with Tetranychus urticae [3], 100%; in the assay with Tetranychus urticae [4], 100%; in the assay with Tetranychus urticae [5], 100%.

With `CCc1nn(C)c(C(=O)NCc2ccc(OC(C)C(F)(F)F)nc2)c1Cl` (stereo not given), the Activity was found to be 30% with Tetranychus urticae [1]; 100% with Tetranychus urticae [2]; 100% with Tetranychus urticae [3]; 100% in the assay with Tetranychus urticae [4]; 100% with Tetranychus urticae [5].

For the molecule `CCc1nn(C)c(C(=O)NCc2ccc(OCC(F)(F)C(F)(F)C(F)(F)F)nc2)c1Cl`, the Activity in the assay with Tetranychus urticae [1] is 80%; in the assay with Tetranychus urticae [2] it was 100%; in the assay with Tetranychus urticae [3], 100%; in the assay with Tetranychus urticae [4], 100%; in the assay on Tetranychus urticae [5], 100%.

For `CCc1nn(C)c(C(=O)NCc2ccc(OCC(F)(F)C(F)F)nc2)c1Cl`, the Activity is 30% in the assay on Tetranychus urticae [1]; 80% in the assay on Tetranychus urticae [2]; 100% with Tetranychus urticae [3]; 100% in the assay with Tetranychus urticae [4]; 100% in the assay on Tetranychus urticae [5].

For the molecule `CCc1nn(C)c(C(=O)NCc2ccc(CC(C)(C)C)nc2)c1Cl`, the Activity was 30% in the assay on Tetranychus urticae [1]; 100% with Tetranychus urticae [2]; 100% in the assay on Tetranychus urticae [3]; 100% in the assay on Tetranychus urticae [4]; 100% with Tetranychus urticae [5].
